Source: patent US11180452B2, “Methods and compositions for selectively inhibiting pathogenic microbes” (priority 2019, dated 2021)
Converted amounts (≈) assume the structure as drawn. Like-named read-outs stand apart in the source and are kept apart here.

Assays:
Assay type in all cases: cell-based
Trichophyton rubrum = experiment: MIC against Trichophyton rubrum; conditions: Trichophyton rubrum Castellani Sabouraud ATCC: 28188; read-out: MIC
Bacillus subtilis = Bacillus subtilis MIC / MBC; conditions: for MBC: Bacillus subtilis NRRL: B-571, minimum bactericidal concentration; for MIC: Bacillus subtilis
Bacillus thuringiensis = conditions: for MIC: Bacillus thuringiensis
[1] = tested on: Burkholderia thailandensis Brett et al ATCC: 700388; experiment: microbe, parasite or virus in culture
Candida glabrata = Candida glabrata MIC / MFC; conditions: Nakaseomyces glabratus
[2] = tested on: Francisella tularensis subsp. Holarctica Strain LVSR NR-597; experiment: microbe, parasite or virus in culture
C. albicans = experiment: Candida albicans MIC / MFC
[3] = Bacillus subtilis (Ehrenberg 1835) Cohn 1872 NRRL: B-571, read-out: MIC
[4] = strain B-1985, read-out: Bacillus subtilis MIC
[5] = strain B-3665, read-out: Bacillus subtilis MIC
[6] = strain B-14322, read-out: Bacillus subtilis MIC
[7] = strain B-41090, read-out: Bacillus subtilis MIC
[8] = strain B-41581, read-out: Bacillus subtilis MIC
[9] = strain BD-594, read-out: Bacillus subtilis MIC
[10] = Bacillus thuringiensis Berliner ATCC: 10792
[11] = Bacillus thuringiensis Berliner ATCC: 10792, read-out: MIC
[12] = Candida glabrata #584 (Table 2), read-out: MIC
[13] = Candida glabrata #584 (Table 2), minimum fungicidal concentration, read-out: MFC
[14] = C. glabrata strain #325, read-out: MIC
[15] = C. glabrata strain #584 (Table 7), read-out: MIC
[16] = C. albicans strain #761, read-out: MFC
[17] = C. albicans strain #761, read-out: MIC
[18] = C. albicans strain #762, read-out: MFC
[19] = C. albicans strain #762, read-out: MIC

| SMILES | MIC (Trichophyton rubrum) | MBC (Bacillus subtilis) | MIC (Bacillus subtilis; [3]) | MBC (Bacillus thuringiensis; [10]) | MIC (Bacillus thuringiensis; [11]) | MIC [1] | MIC (Candida glabrata; [12]) | MIC [2] | other results |
| --- | --- | --- | --- | --- | --- | --- | --- | --- | --- |
| Brc1ccc(Sc2c[nH]c3ccc(Br)cc23)cc1 [Compound 172D, 5-bromo-3-((4-bromophenyl)thio)-1H-indole] | 1.18 µg/mL (≈ 3.08 µM) | 5 µg/mL (≈ 13.1 µM) | 1.25 µg/mL (≈ 3.26 µM) | 10 µg/mL (≈ 26.1 µM) | 1.25 µg/mL (≈ 3.26 µM) | 100 µg/mL (≈ 261 µM) | > 50 µg/mL | 1.25 µg/mL (≈ 3.26 µM) | MIC (Bacillus subtilis; strain B-571 (Table 4), read-out: Bacillus subtilis MIC): 1.25 µg/mL (≈ 3.26 µM); MIC (Bacillus subtilis; [4]): 1.25 µg/mL (≈ 3.26 µM); MIC (Bacillus subtilis; [5]): 1.25 µg/mL (≈ 3.26 µM); MIC (Bacillus subtilis; [6]): 1.25 µg/mL (≈ 3.26 µM); MIC (Bacillus subtilis; [7]): 2.5 µg/mL (≈ 6.53 µM); MIC (Bacillus subtilis; [8]): 1.25 µg/mL (≈ 3.26 µM); MIC (Bacillus subtilis; [9]): 2.5 µg/mL (≈ 6.53 µM); MIC (Bacillus thuringiensis; ATCC10792, […]): 1.25 µg/mL (≈ 3.26 µM); MIC (Bacillus thuringiensis; strain B-1596): 2.5 µg/mL (≈ 6.53 µM); MBC [1]: > 150 µg/mL |
| [O-][S+](c1ccc(Br)cc1)c1c[nH]c2ccc(Br)cc12 (stereo not drawn) [Compound 172I, 5-bromo-3-((4-bromophenyl)sulfinyl)-1H-indole] | 9.92 µg/mL (≈ 24.9 µM) | 10 µg/mL (≈ 25.1 µM) | 10 µg/mL (≈ 25.1 µM) | 40 µg/mL (≈ 100 µM) | 10 µg/mL (≈ 25.1 µM) |  | > 40 µg/mL | 20 µg/mL (≈ 50.1 µM) |  |
| Fc1ccc2c(Sc3ccc(Br)cc3)c[nH]c2c1 [Compound 172A, 3-((4-bromophenyl)thio)-6-fluoro-1H-indole] | 9.52 µg/mL (≈ 29.5 µM) | > 50 µg/mL | 1.56 µg/mL (≈ 4.84 µM) | 1.56 µg/mL (≈ 4.84 µM) | 1.56 µg/mL (≈ 4.84 µM) | > 50 µg/mL | 1.56 µg/mL (≈ 4.84 µM) | 0.78 µg/mL (≈ 2.42 µM) | MFC (Candida glabrata; C. glabrata strain #325): 12.5 µg/mL (≈ 38.8 µM); MIC (Candida glabrata; C. glabrata strain #325): 6.25 µg/mL (≈ 19.4 µM); MFC (Candida glabrata; [13]): 3.13 µg/mL (≈ 9.71 µM); MFC (C. albicans; C. albicans strain #761): 12.5 µg/mL (≈ 38.8 µM); MIC (C. albicans; C. albicans strain #761): 3.13 µg/mL (≈ 9.71 µM); MFC (C. albicans; C. albicans strain #762): 6.25 µg/mL (≈ 19.4 µM); MIC (C. albicans; C. albicans strain #762): 1.56 µg/mL (≈ 4.84 µM) |
| FC(F)(F)c1ccc2[nH]cc(Sc3ccccc3Br)c2c1 [Compound 174AX, 3-((2-bromophenyl)thio)-5-(trifluoromethyl)-1H-indole] |  | 8 µg/mL (≈ 21.5 µM) | 0.5 µg/mL (≈ 1.34 µM) | 2 µg/mL (≈ 5.37 µM) | 1 µg/mL (≈ 2.69 µM) |  | 12.5 µg/mL (≈ 33.6 µM) | 1 µg/mL (≈ 2.69 µM) | MIC (Candida glabrata; [14]): > 50 µg/mL; MIC (Candida glabrata; [15]): 12.5 µg/mL (≈ 33.6 µM); MFC (C. albicans; [16]): 50 µg/mL (≈ 134 µM); MIC (C. albicans; [17]): 12.5 µg/mL (≈ 33.6 µM); MFC (C. albicans; [18]): 12.5 µg/mL (≈ 33.6 µM); MIC (C. albicans; [19]): 6.25 µg/mL (≈ 16.8 µM) |
| Brc1ccc(Sc2c[nH]c3cc(Br)cc(Br)c23)cc1 [Compound 174AE, 4,6-dibromo-3-((4-bromophenyl)thio)-1H-indole] |  | 4 µg/mL (≈ 8.66 µM) | 2 µg/mL (≈ 4.33 µM) | > 50 µg/mL | 2 µg/mL (≈ 4.33 µM) | > 50 µg/mL | 25 µg/mL (≈ 54.1 µM) | 4 µg/mL (≈ 8.66 µM) | MFC (Candida glabrata; C. glabrata strain #325, read-out: MFC): > 50 µg/mL; MIC (Candida glabrata; [14]): 12.5 µg/mL (≈ 27.1 µM); MIC (Candida glabrata; [15]): 25 µg/mL (≈ 54.1 µM); MFC (C. albicans; [16]): > 50 µg/mL; MIC (C. albicans; [17]): 50 µg/mL (≈ 108 µM); MFC (C. albicans; [18]): 25 µg/mL (≈ 54.1 µM); MIC (C. albicans; [19]): 6.25 µg/mL (≈ 13.5 µM) |
| Brc1ccc(Sc2c[nH]c3cc(Br)c(Br)cc23)cc1 [Compound 174AB, 5,6-dibromo-3-((4-bromophenyl)thio)-1H-indole] |  | 16 µg/mL (≈ 34.6 µM) | 4 µg/mL (≈ 8.66 µM) | 8 µg/mL (≈ 17.3 µM) | 2 µg/mL (≈ 4.33 µM) | > 50 µg/mL | 3.13 µg/mL (≈ 6.77 µM) | 4 µg/mL (≈ 8.66 µM) | MIC (Bacillus subtilis; [4]): 4 µg/mL (≈ 8.66 µM); MIC (Bacillus subtilis; [5]): 2 µg/mL (≈ 4.33 µM); MIC (Bacillus subtilis; [6]): 2 µg/mL (≈ 4.33 µM); MIC (Bacillus subtilis; [7]): 4 µg/mL (≈ 8.66 µM); MIC (Bacillus subtilis; [8]): 2 µg/mL (≈ 4.33 µM); MIC (Bacillus subtilis; [9]): 4 µg/mL (≈ 8.66 µM); MIC (Bacillus thuringiensis; strain B-1596): 4 µg/mL (≈ 8.66 µM); MIC (Candida glabrata; [14]): > 50 µg/mL; MIC (Candida glabrata; [15]): 3.13 µg/mL (≈ 6.77 µM); MIC (C. albicans; [17]): > 50 µg/mL; MIC (C. albicans; [19]): > 50 µg/mL |
| Brc1ccc(Sc2c[nH]c3c(Br)cccc23)cc1 [Compound 174H, 7-bromo-3-((4-bromophenyl)thio)-1H-indole] | 2.38 µg/mL (≈ 6.21 µM) | > 50 µg/mL | 3.13 µg/mL (≈ 8.17 µM) | 12.5 µg/mL (≈ 32.6 µM) | 6.25 µg/mL (≈ 16.3 µM) | > 50 µg/mL | 12.5 µg/mL (≈ 32.6 µM) | 3.13 µg/mL (≈ 8.17 µM) |  |
| Cc1c(Sc2ccc(Br)cc2)[nH]c2ccccc12 [Compound 172B, 2-((4-bromophenyl)thio)-3-methyl-1H-indole] | 15.6 µg/mL (≈ 49 µM) | 25 µg/mL (≈ 78.6 µM) | 6.25 µg/mL (≈ 19.6 µM) | 25 µg/mL (≈ 78.6 µM) | 6.25 µg/mL (≈ 19.6 µM) |  | 50 µg/mL (≈ 157 µM) | 3.13 µg/mL (≈ 9.84 µM) |  |
| Clc1ccc(Sc2c[nH]c3ccc(Br)cc23)cc1Cl [Compound 174W, 5-bromo-3-((3,4-dichlorophenyl)thio)-1H-indole] | 1.16 µg/mL (≈ 3.11 µM) | > 10 µg/mL | 1.25 µg/mL (≈ 3.35 µM) | 5 µg/mL (≈ 13.4 µM) | 1.25 µg/mL (≈ 3.35 µM) | > 50 µg/mL | 25 µg/mL (≈ 67 µM) |  | MIC (Candida glabrata; [14]): > 50 µg/mL; MIC (Candida glabrata; [15]): 25 µg/mL (≈ 67 µM); MIC (C. albicans; [17]): > 50 µg/mL; MIC (C. albicans; [19]): > 50 µg/mL |
| Clc1cccc(Sc2c[nH]c3ccc(Br)cc23)c1Cl [Compound 174T, 5-bromo-3-((2,3-dichlorophenyl)thio)-1H-indole] | 1.16 µg/mL (≈ 3.11 µM) | > 10 µg/mL | 1.25 µg/mL (≈ 3.35 µM) | 2.5 µg/mL (≈ 6.7 µM) | 1.25 µg/mL (≈ 3.35 µM) | > 50 µg/mL | 3.13 µg/mL (≈ 8.39 µM) |  | MFC (Candida glabrata; [13]): 25 µg/mL (≈ 67 µM) |
| COc1ccc(Sc2c[nH]c3ccccc23)cc1 [Compound 156O, 3-((4-methoxyphenyl)thio)-1H-indole] | 3.19 µg/mL (≈ 12.5 µM) | 12.5 µg/mL (≈ 49 µM) | 6.25 µg/mL (≈ 24.5 µM) | > 50 µg/mL | 6.25 µg/mL (≈ 24.5 µM) |  | 50 µg/mL (≈ 196 µM) | 3.13 µg/mL (≈ 12.3 µM) |  |
| Brc1ccc2[nH]cc(Sc3nc4ccccc4s3)c2c1 [Compound 174L, 2-((5-bromo-1H-indol-3-yl)thio)benzo[d]thiazole] | > 18 µg/mL | > 50 µg/mL | 1.56 µg/mL (≈ 4.32 µM) | 50 µg/mL (≈ 138 µM) | 1.56 µg/mL (≈ 4.32 µM) | > 50 µg/mL | > 50 µg/mL |  |  |
| Brc1ccc(Sc2c[nH]c3ccccc23)cc1 [Compound 174U, 3-((4-bromophenyl)thio)-1H-indole] | 0.95 µg/mL (≈ 3.12 µM) | > 10 µg/mL | > 50 µg/mL | 12.5 µg/mL (≈ 41.1 µM) | 12.5 µg/mL (≈ 41.1 µM) | > 50 µg/mL | > 50 µg/mL | 1.56 µg/mL (≈ 5.13 µM) |  |
| O=S(=O)(c1ccc(Br)cc1)c1c[nH]c2ccc(Br)cc12 [Compound 172J, 5-bromo-3-((4-bromophenyl)sulfonyl)-1H-indole] | 10.3 µg/mL (≈ 24.8 µM) | 6.25 µg/mL (≈ 15.1 µM) | 3.13 µg/mL (≈ 7.54 µM) | 3.13 µg/mL (≈ 7.54 µM) | 1.56 µg/mL (≈ 3.76 µM) | > 50 µg/mL | > 50 µg/mL | 6.25 µg/mL (≈ 15.1 µM) |  |
| Brc1ccc2[nH]cc(Sc3cccc4ccccc34)c2c1 [Compound 174G, 5-bromo-3-(naphthalen-1-ylthio)-1H-indole] | 2.21 µg/mL (≈ 6.24 µM) | 50 µg/mL (≈ 141 µM) | 1.56 µg/mL (≈ 4.4 µM) | 3.13 µg/mL (≈ 8.84 µM) | 1.56 µg/mL (≈ 4.4 µM) | > 50 µg/mL | > 50 µg/mL |  |  |
| Brc1ccc(Sc2[nH]c3ccccc3c2Sc2ccc(Br)cc2)cc1 [Compound 156P, 2,3-bis((4-bromophenyl)thio)-1H-indole] | 6.11 µg/mL (≈ 12.4 µM) | > 50 µg/mL | 12.5 µg/mL (≈ 25.4 µM) | > 50 µg/mL | 3.13 µg/mL (≈ 6.37 µM) |  | > 50 µg/mL | > 50 µg/mL |  |
